Article PMC4342496 (The Journal of Biological Chemistry, 2015)
Where two headings read alike, the source gives them in different places.

Experiments:
CjIMPDHΔS = molecular target: T1, CjIMPDHΔS (Campylobacter jejuni, UniProt Q0P9J4, INS91G/DEL92-195); test: NADH production, A340; format: biochemical; conditions: pH 8.0, 1 mM IMP, NAD+ about 2.5 x Km, 10 min preincubation, room temperature
T1 construct: gene guaB
T1 sequence (Q0P9J4 1-485 INS91G/DEL92-195): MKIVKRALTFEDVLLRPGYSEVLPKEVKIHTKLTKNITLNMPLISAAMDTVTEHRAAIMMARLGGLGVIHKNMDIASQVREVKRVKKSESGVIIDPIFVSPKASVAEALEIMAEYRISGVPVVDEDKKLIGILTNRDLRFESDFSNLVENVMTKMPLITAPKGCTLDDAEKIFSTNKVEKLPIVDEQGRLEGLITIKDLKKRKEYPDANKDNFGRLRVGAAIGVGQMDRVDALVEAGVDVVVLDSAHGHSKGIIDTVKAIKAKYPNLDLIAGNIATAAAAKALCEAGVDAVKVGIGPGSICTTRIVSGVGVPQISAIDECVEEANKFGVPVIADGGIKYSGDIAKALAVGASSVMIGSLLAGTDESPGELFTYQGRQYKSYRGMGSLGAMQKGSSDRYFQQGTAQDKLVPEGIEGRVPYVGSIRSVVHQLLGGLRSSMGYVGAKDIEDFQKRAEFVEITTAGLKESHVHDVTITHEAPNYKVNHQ
Description: NADH production, A340 on CjIMPDHΔS

CjIMPDH [1] = molecular target: T2, CjIMPDH (Campylobacter jejuni, UniProt Q0P9J4); test: NADH production, A340; format: biochemical
T2 construct: gene guaB; full-length wild type, N-terminal His6 tag, pMCSG7, E. coli; tetramer
T2 sequence (Q0P9J4 1-485): T1 sequence (Q0P9J4 1-485 INS91G/DEL92-195)
Description: NADH production, A340 on CjIMPDH

CpIMPDH = molecular target: T3, CpIMPDH (Cryptosporidium parvum, UniProt Q8T6T2); test: NADH production, A340; format: biochemical
T3 construct: gene 56k.02; recombinant
T3 sequence (Q8T6T2 1-400): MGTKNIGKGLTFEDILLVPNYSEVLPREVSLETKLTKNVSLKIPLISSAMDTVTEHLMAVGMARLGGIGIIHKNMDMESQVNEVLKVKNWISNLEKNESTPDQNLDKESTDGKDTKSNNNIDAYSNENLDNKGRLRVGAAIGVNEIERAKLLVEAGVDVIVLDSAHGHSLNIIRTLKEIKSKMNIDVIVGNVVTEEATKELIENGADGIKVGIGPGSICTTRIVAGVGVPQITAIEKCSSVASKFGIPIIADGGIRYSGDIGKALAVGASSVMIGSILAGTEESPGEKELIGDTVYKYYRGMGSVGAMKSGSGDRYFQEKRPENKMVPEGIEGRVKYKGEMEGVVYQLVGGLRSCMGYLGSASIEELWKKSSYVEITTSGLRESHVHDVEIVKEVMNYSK
Description: NADH production, A340 on CpIMPDH

BaIMPDH = molecular target: T4, BaIMPDH (Bacillus anthracis, UniProt A0A6L8P2U9); format: biochemical
T4 construct: gene guaB

CjIMPDH [2] = molecular target: T2, CjIMPDH; test: steady-state kinetics, A340; format: biochemical; conditions: substrate inhibition by NAD+; pH 8.0, 25 °C
Description: steady-state kinetics, A340 on CjIMPDH

VcIMPDH = molecular target: T5, VcIMPDH (Vibrio cholerae, UniProt Q9KTW3); test: NADH production, A340; format: biochemical; conditions: read-out: IC50 / 1
T5 construct: gene guaB; full-length wild type, N-terminal His6 tag, recombinant E. coli; tetramer
T5 sequence (Q9KTW3 1-489): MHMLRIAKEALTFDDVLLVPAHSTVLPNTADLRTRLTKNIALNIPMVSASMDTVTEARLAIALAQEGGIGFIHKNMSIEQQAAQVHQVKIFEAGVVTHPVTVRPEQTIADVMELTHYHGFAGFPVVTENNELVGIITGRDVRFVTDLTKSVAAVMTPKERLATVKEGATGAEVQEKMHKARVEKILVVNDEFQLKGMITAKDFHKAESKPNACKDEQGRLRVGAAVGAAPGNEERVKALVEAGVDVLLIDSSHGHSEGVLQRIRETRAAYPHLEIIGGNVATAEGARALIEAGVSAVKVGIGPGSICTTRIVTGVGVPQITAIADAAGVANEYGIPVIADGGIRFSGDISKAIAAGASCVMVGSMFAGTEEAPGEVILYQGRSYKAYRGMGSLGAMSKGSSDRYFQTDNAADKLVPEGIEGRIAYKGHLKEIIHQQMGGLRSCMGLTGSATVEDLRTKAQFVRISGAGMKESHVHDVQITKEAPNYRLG
Description: NADH production, A340 on VcIMPDH

[3] = test system: NC(=O)c1ccc[n+]([C@@H]2O[C@H](COP(=O)(O)OP(=O)(O)OC[C@H]3O[C@@H](n4cnc5c(N)ncnc54)[C@H](O)[C@@H]3O)[C@@H](O)[C@H]2O)c1; test: purified protein; conditions: pH 8.0; 25.0 °C

T4 sequence (A0A6L8P2U9 1-487 limits assumed): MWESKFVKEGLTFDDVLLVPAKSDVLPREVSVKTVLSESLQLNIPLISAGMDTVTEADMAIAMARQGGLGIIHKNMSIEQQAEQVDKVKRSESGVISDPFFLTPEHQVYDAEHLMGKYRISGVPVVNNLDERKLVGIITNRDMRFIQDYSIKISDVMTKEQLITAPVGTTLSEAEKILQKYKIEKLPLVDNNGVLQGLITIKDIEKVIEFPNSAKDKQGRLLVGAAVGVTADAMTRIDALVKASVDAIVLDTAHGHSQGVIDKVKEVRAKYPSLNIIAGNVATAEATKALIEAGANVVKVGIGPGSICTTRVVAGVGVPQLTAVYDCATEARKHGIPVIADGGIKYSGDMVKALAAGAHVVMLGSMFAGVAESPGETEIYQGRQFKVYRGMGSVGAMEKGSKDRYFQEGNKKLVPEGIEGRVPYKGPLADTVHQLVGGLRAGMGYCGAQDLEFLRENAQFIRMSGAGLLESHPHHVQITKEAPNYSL

Compound: C[C@@H](Oc1cc[n+]([O-])c2ccccc12)c1cn(-c2ccc(Cl)cc2)nn1 [compound 1, 4-[(1R)-[1-(4-chlorophenyl)-1H-1,2,3-triazol-4yl]ethoxy]quinoline-1-oxide]
- IC50 (CjIMPDHΔS; read-out: IC50 / 1): 107 ± 8 nM
- IC50 (CjIMPDH [1]; read-out: IC50 / 1): 140 ± 30 nM
- IC50 (CpIMPDH; read-out: IC50 / 1): 9 ± 2 nM

Compound: NC(=O)c1ccc[n+]([C@@H]2O[C@H](COP(=O)(O)OP(=O)(O)OC[C@H]3O[C@@H](n4cnc5c(N)ncnc54)[C@H](O)[C@@H]3O)[C@@H](O)[C@H]2O)c1 [NAD^+]
- NAD^+ Kii (BaIMPDH): 3.9 ± 0.8 mM
- NAD^+ Kii (CjIMPDH [2]): 20 ± 2 mM

Compound: C=C(C)c1cccc(C(C)(C)NC(=O)Nc2ccc(Br)cc2)c1 [compound 4]
- IC50 (CjIMPDHΔS; read-out: IC50 / 4): 67 ± 13 nM
- IC50 (CjIMPDH [1]; read-out: IC50 / 4): 36 ± 8 nM
- IC50 (CpIMPDH; read-out: IC50 / 4): 11 ± 5 nM
- IC50 (VcIMPDH): > 5000 nM

Compound: BaIMPDH (Bacillus anthracis)
- Km [3]: 550 ± 100 µM

Compound: Cn1nc(CC(=O)Nc2ccc3oc4c(c3c2)CCCC4)c2ccccc2c1=O [compound 3, 3,4-dihydro-3-methyl-4-oxo-N-(6,7,8,9-tetrahydro2-dibenzofuranyl)-1-phthalazineacetamide]
- IC50 (CjIMPDHΔS; read-out: IC50 / 3): 200 ± 20 nM
- IC50 (CjIMPDH [1]; read-out: IC50 / 3): 169 ± 20 nM
- IC50 (CpIMPDH; read-out: IC50 / 3): 24 ± 6 nM
- IC50 (VcIMPDH): > 5000 nM

Compound: C/C(=N\O)c1cccc(C(C)(C)NC(=O)Nc2ccc(Br)cc2)c1 [compound 6]
- IC50 (CjIMPDHΔS; read-out: IC50 / 6): 46 ± 4 nM
- IC50 (CjIMPDH [1]; read-out: IC50 / 6): 29 ± 4 nM
- IC50 (CpIMPDH; read-out: IC50 / 6): 8 ± 2 nM
- IC50 (VcIMPDH): > 5000 nM

Compound: C[C@H](Oc1cccc2ccccc12)C(=O)Nc1ccc2oc(-c3ccncc3)nc2c1 [compound 7, 2-(1-naphthalenyloxy)-N-[2-(4-pyridinyl)-5-benzoxazolyl)-(2S)-propanamide]
- IC50 (CjIMPDHΔS; read-out: IC50 / 7): 19 ± 2 nM
- IC50 (CjIMPDH [1]; read-out: IC50 / 7): 13 ± 2 nM
- IC50 (VcIMPDH): > 5000 nM
